Experimental data as given in patent publication US20080255206A1, “Rxr Agonists and Antagonists, Alone or in Combination with Ppar Ligands, in the Treatment of Metabolic and Cardiovascular Diseases” (priority 2005, published 2008).

Columns and labels:
db/db mice = assay: Investigation with db/db mice (blood glucose and lipids); format: in vivo, mouse; conditions: for Glucose Diff. D o − D 12 / HDL-cholesterol Diff. D o − D 12 / Total cholesterol Diff. D o − D 12 / Triglycerides Diff. D o − D 12: change day 0 to day 12; for Glucose D o / HDL-cholesterol D o / Total cholesterol D o / Triglycerides D o: day 0; for Glucose D 12 / HDL-cholesterol D 12 / Total cholesterol D 12 / Triglycerides D 12: day 12; for Glucose D-4 / HDL-cholesterol D-4 / Total cholesterol D-4 / Triglycerides D-4: day −4
Experimental: The following compounds are investigated and compared to placebo (vehicle control).
The mentioned 3 compounds are tested in db/db mice during a time when diabetes is in a rapid developing stage. […] Each dosage group and the vehicle group comprise 7 mice. The suspensions used are prepared with peroxide free arachis oil as vehicle. Blood samples are collected by retro-orbital bleeding at days −4, 0 and 12. The blood levels of glucose, triglycerides, total cholesterol, and HDL-cholesterol are determined.
For evaluation of efficacy, the difference between the values of glucose, triglycerides, total cholesterol and HDL-cholesterol changing from day 0 to day 12 is determined and expressed in %. […] Overall evaluation consists in determining the efficacy of the compounds by calculating the whole extent of the effect expressed in %. […] This value is considered as a valuable indicator for the efficacy of the investigated compounds administered in a tolerated dose.

skin of rats = assay: Topical administration to the skin of rats (irritation); format: in vivo; conditions: concentrations up to 2.5%
[1] = test system: skin inflammation induced by topical 9-cis RA; assay: Preventive and therapeutic effect on 9-cis RA-induced skin inflammation, human volunteer study; format: in vivo; conditions: 9-cis RA 0.3% day 1 to day 14, then vehicle
Experimental: In this pilot clinical trial on one healthy volunteer, the substance 9-cis RA and compound 15 are administered epicutaneously. The inflammation-inducing agent 9-cis RA is used in a concentration of 0.3%. The RXR antagonist compound 15 is applied in a concentration of 1%. The compounds are solved in ethanol/propylene glycol (1:1) and administered twice daily. The site of application is the abdominal skin, with various areas of 3×3=9 cm^2. Volume per application is 0.1 ml.
The following three clinical settings at different sites are chosen: • 1. Induction of skin inflammation by 9-cis RA 9-cis RA is administered as a 0.3% solution twice daily from day 1 to day 14. The vehicle is administered from day 15 to disappearance of skin inflammation. • 2. Prevention of 9-cis RA-induced skin inflammation by RXR antagonist Compound 15 9-cis RA solution of 0.3% is administered twice daily from day 1 to day 14, each time followed subsequently by application of compound 15 as a 1% solution. • 3. Therapy of 9-cis RA-induced skin inflammation by RXR antagonist compound 15 9-cis RA solution of 0.3% is administered twice daily from day 1 to day 14. Compound 15 as a 1% solution is administered from day 15 until disappearance of skin inflammation.
The signs and symptoms of skin inflammation are recorded on a 0-4 scale, as described in example 21. The evaluation of the anti-inflammatory effect is based on the daily determination of the inflammation score (scale 0-4).
The following parameters serve as criteria for evaluation of the effect of 9-cis RA, the preventive effect of compound 15 and the therapeutic effect of compound 15. • 1. Sum of the daily inflammation scores from day 1 to day 28. Total inflammation score. • 2. Sum of the daily inflammation scores from day 15 to disappearance of skin inflammation. • 3. Time in days from day 15 to disappearance of skin inflammation.

[2] = test system: human skin inflammation induced by topical 9-cis RA; assay: Therapeutic effect on 9-cis RA-induced human skin inflammation, clinical pilot trial; format: in vivo
Experimental: In the following pilot clinical trial on one healthy volunteer the compounds are applied epicutaneously. 9-cis RA being known for its skin inflammation potential is used in concentrations of 0.1%, 0.3% and 1%. Compound 15 (RXR antagonist) concentration is 1%. The compounds are solved in ethanol/propylene glycol (1:1). 9-cis RA is applied twice daily, 7 days a week, for two consecutive weeks. The site of application is an area of 3×3=9 cm^2 on the abdominal skin. The volume is 0.1 ml per administration. The treatment with compound 15, administered twice daily in a concentration of 1%, is started on day 15 when treatment with 9-cis RA is discontinued. This treatment lasts from day 15 to day 22. For a correct evaluation comparative areas with inflammation induced by 9-cis RA are treated with the vehicle, ethanol/propylene glycol, from day 15 to 22. The post-treatment period lasts until day 28.
The signs and symptoms of skin inflammation are recorded on a 0-4 scale, as described in example 21.
For evaluation of the anti-inflammatory effect of compound 15, the sum of the daily inflammation scores from day 15 to day 28 is determined, as well as the time to complete disappearance of skin inflammation from day 15 on.

[3] = 30 mg/kg/day group versus vehicle group
[4] = 9-cis RA 0.1% day 1-14, followed by vehicle day 15-22
[5] = 9-cis RA 0.3% day 1-14, followed by vehicle day 15-22
[6] = 9-cis RA 1% day 1-14, followed by vehicle day 15-22

CC1=C(/C=C/C2=C(/C=C/C(C)=C/C(=O)O)CCCCC2)C(C)(C)CCC1 [Compound 1, (2E,4E)-3-methyl-5-[2-[(E)-2-(2,6,6-trimethyl-1-cyclohexen-1-yl)ethenyl]-1-cyclohepten-1-yl]-2,4-pentadienoic acid]
Glucose Diff. D o − D 12 (db/db mice; 0.3 mg/kg/day i.p.): +57.5% | HDL-cholesterol Diff. D o − D 12 (db/db mice; 0.3 mg/kg/day i.p.): −3.2% | Total cholesterol Diff. D o − D 12 (db/db mice; 0.3 mg/kg/day i.p.): −14.1% | Triglycerides Diff. D o − D 12 (db/db mice; 0.3 mg/kg/day i.p.): +25.4% | Glucose D o (db/db mice; 0.3 mg/kg/day i.p.): 207 mg/dL | HDL-cholesterol D o (db/db mice; 0.3 mg/kg/day i.p.): 3.78 mmol/L | Total cholesterol D o (db/db mice; 0.3 mg/kg/day i.p.): 4.27 mmol/L | Triglycerides D o (db/db mice; 0.3 mg/kg/day i.p.): 1.73 mmol/L | Glucose D 12 (db/db mice; 0.3 mg/kg/day i.p.): 326 mg/dL | HDL-cholesterol D 12 (db/db mice; 0.3 mg/kg/day i.p.): 2.69 mmol/L | Total cholesterol D 12 (db/db mice; 0.3 mg/kg/day i.p.): 3.67 mmol/L | Triglycerides D 12 (db/db mice; 0.3 mg/kg/day i.p.): 2.17 mmol/L | Glucose D-4 (db/db mice; 0.3 mg/kg/day i.p.): 138 mg/dL | HDL-cholesterol D-4 (db/db mice; 0.3 mg/kg/day i.p.): 2.65 mmol/L | Total cholesterol D-4 (db/db mice; 0.3 mg/kg/day i.p.): 4.26 mmol/L | Triglycerides D-4 (db/db mice; 0.3 mg/kg/day i.p.): 1.83 mmol/L | Glucose levels (in words) (db/db mice; 3 mg/kg/day): no significant change | HDL-cholesterol levels (in words) (db/db mice; 3 mg/kg/day): not influenced | Triglyceride levels (in words) (db/db mice; 3 mg/kg/day): hardly influenced | Glucose Diff. D o − D 12 (db/db mice; 3.0 mg/kg/day i.p.): +40.7% | HDL-cholesterol Diff. D o − D 12 (db/db mice; 3.0 mg/kg/day i.p.): −19.6% | Total cholesterol Diff. D o − D 12 (db/db mice; 3.0 mg/kg/day i.p.): −19.9% | Triglycerides Diff. D o − D 12 (db/db mice; 3.0 mg/kg/day i.p.): +15.3% | Glucose D o (db/db mice; 3.0 mg/kg/day i.p.): 194 mg/dL | HDL-cholesterol D o (db/db mice; 3.0 mg/kg/day i.p.): 3.37 mmol/L | Total cholesterol D o (db/db mice; 3.0 mg/kg/day i.p.): 4.68 mmol/L | Triglycerides D o (db/db mice; 3.0 mg/kg/day i.p.): 1.83 mmol/L | Glucose D 12 (db/db mice; 3.0 mg/kg/day i.p.): 273 mg/dL | HDL-cholesterol D 12 (db/db mice; 3.0 mg/kg/day i.p.): 2.71 mmol/L | Total cholesterol D 12 (db/db mice; 3.0 mg/kg/day i.p.): 3.75 mmol/L | Triglycerides D 12 (db/db mice; 3.0 mg/kg/day i.p.): 2.11 mmol/L | Glucose D-4 (db/db mice; 3.0 mg/kg/day i.p.): 155 mg/dL | HDL-cholesterol D-4 (db/db mice; 3.0 mg/kg/day i.p.): 2.53 mmol/L | Total cholesterol D-4 (db/db mice; 3.0 mg/kg/day i.p.): 4.25 mmol/L | Triglycerides D-4 (db/db mice; 3.0 mg/kg/day i.p.): 1.85 mmol/L | Glucose levels (in words) (db/db mice; 30 mg/kg/day): decrease markedly | HDL-cholesterol levels (in words) (db/db mice; 30 mg/kg/day): markedly increased | Total cholesterol levels (in words) (db/db mice; 30 mg/kg/day): slightly higher | Triglyceride levels (in words) (db/db mice; 30 mg/kg/day): decreasing significantly | Overall extent of the effect on blood levels of Glucose (db/db mice; [3]): −62.5% | Overall extent of the effect on blood levels of HDL-cholesterol (db/db mice; [3]): +18.4% | Overall extent of the effect on blood levels of Total cholesterol (db/db mice; [3]): −16.6% | Overall extent of the effect on blood levels of Triglycerides (db/db mice; [3]): −21.5% | Glucose Diff. D o − D 12 (db/db mice; 30 mg/kg/day i.p.): −12.3% | HDL-cholesterol Diff. D o − D 12 (db/db mice; 30 mg/kg/day i.p.): +14.6% | Total cholesterol Diff. D o − D 12 (db/db mice; 30 mg/kg/day i.p.): +7.8% | Triglycerides Diff. D o − D 12 (db/db mice; 30 mg/kg/day i.p.): +0.6% | Glucose D o (db/db mice; 30 mg/kg/day i.p.): 335 mg/dL | HDL-cholesterol D o (db/db mice; 30 mg/kg/day i.p.): 2.94 mmol/L | Total cholesterol D o (db/db mice; 30 mg/kg/day i.p.): 4.21 mmol/L | Triglycerides D o (db/db mice; 30 mg/kg/day i.p.): 1.7 mmol/L | Glucose D 12 (db/db mice; 30 mg/kg/day i.p.): 206 mg/dL | HDL-cholesterol D 12 (db/db mice; 30 mg/kg/day i.p.): 3.37 mmol/L | Total cholesterol D 12 (db/db mice; 30 mg/kg/day i.p.): 4.54 mmol/L | Triglycerides D 12 (db/db mice; 30 mg/kg/day i.p.): 1.71 mmol/L | Glucose D-4 (db/db mice; 30 mg/kg/day i.p.): 174 mg/dL | HDL-cholesterol D-4 (db/db mice; 30 mg/kg/day i.p.): 2.46 mmol/L | Total cholesterol D-4 (db/db mice; 30 mg/kg/day i.p.): 4.37 mmol/L | Triglycerides D-4 (db/db mice; 30 mg/kg/day i.p.): 2.13 mmol/L | Irritation or inflammation of the skin (skin of rats): does not lead to irritation or inflammation of the skin

CC1=C(/C=C/C(C)=C\C=C\C(C)=C\C(=O)O)C(C)(C)CCC1 [9-cis RA, 9-cis retinoic acid, reference compound]
Sum of daily inflammation scores from day 15 to disappearance of inflammation [1]: 14 | Sum of daily inflammation scores, day 1 to day 28. Total inflammation score [1]: 18 | Time in days from day 15 to disappearance of inflammation [1]: 13 days | Sum of daily inflammation scores from day 15 to disappearance of inflammation [2, 4]: 6.5 | Time in days from day 15 to disappearance of inflammation [2, 4]: 8 days | Sum of daily inflammation scores from day 15 to disappearance of inflammation [2, 5]: 14 | Time in days from day 15 to disappearance of inflammation [2, 5]: 13 days | Sum of daily inflammation scores from day 15 to disappearance of inflammation [2, 6]: 14.5 | Time in days from day 15 to disappearance of inflammation [2, 6]: 9 days
